The source of these data is patent publication US7846719B2, “Express system of soluble glutaminyl cyclase” (Academia Sinica, priority 2006, dated 2010).

The target of data set [1] is T1, Human QC (Homo sapiens, UniProt Q16769). The data set can be described thus: QC inhibition test, spectrophotometric, 96-well microplate. It counts as biochemical. Also on record: corresponding to the coding region of human QC (Ala33-Leu361) was re-amplified and inserted into a pET-43.1a expression vector; Nus fusion (pET-43.1a construct) or thioredoxin fusion (pET-32a construct) (N, cleaved yes); (His)6 (pET-43.1a construct: N- and C-terminal sites; pET-32a construct: 5'-end, upstream of the Factor Xa site); made in house; host or cells: E. coli BL21 (DE3). To be noted: inhibitor 140 μM, substrate H-Gln-Gln-OH 0.55 mM, human QC 28.8 nM, preincubation 5 to 10 min; for remaining activity at 140 µM: read-out: QC activity (% of control). As for the experimental part:
Reactions were started by the addition of QC (0.04 to 2.5 μg), and the activity was monitored by recording the decrease of NADH absorbance at 340 nm.
For an inhibition test, the reaction composition was the same as described above, except for the addition of the inhibitor compound. Prior to the spectrophotometric analysis on a 96-well microplate, the enzyme was incubated with the inhibitor for 5 to 10 min.
Target sequence in this assay (Q16769 33-361): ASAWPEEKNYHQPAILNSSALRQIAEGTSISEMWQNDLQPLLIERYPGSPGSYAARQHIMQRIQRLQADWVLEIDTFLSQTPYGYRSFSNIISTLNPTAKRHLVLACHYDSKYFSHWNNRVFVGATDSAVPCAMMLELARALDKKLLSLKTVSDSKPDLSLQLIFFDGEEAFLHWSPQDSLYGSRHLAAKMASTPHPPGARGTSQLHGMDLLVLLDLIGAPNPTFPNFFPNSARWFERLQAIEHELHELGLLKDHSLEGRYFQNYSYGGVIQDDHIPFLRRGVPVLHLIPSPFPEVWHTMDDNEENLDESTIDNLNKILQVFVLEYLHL

Data set [2] has as its target T1, Human QC. More on the design: host or cells: Pichia pastoris. To be noted: substrate of human QC expressed in Pichia pastoris cell; reported by Schilling et al.; cited from earlier work.
Target sequence in this assay (Q16769 29-361): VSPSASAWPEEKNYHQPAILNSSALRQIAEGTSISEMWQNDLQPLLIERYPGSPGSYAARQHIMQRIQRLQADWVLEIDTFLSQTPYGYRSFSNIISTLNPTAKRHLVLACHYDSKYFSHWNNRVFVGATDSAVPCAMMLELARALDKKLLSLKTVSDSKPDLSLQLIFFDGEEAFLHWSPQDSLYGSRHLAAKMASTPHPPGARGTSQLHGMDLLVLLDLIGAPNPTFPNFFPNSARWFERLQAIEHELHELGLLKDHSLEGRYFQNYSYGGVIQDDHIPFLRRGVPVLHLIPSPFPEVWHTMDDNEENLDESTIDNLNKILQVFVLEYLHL
Data set [3] addresses T1, Human QC. More on the design: host or cells: Pichia pastoris. To be noted: substrate of human QC expressed in Drosophila S2 cell; reported by Booth et al.; cited from earlier work.
Target sequence in this assay (Q16769 29-361): as above
The target in data set [4] is T1, Human QC. The data set is described as follows: Spectrophotometric QC activity assay (glutamate dehydrogenase coupled), human QC expressed in E. coli. It counts as biochemical. Also on record: corresponding to the coding region of human QC (Ala33-Leu361) was re-amplified and inserted into a pET-43.1a expression vector; Nus fusion (pET-43.1a construct) or thioredoxin fusion (pET-32a construct) (N, cleaved yes); (His)6 (pET-43.1a construct: N- and C-terminal sites; pET-32a construct: 5'-end, upstream of the Factor Xa site); made in house; host or cells: E. coli BL21 (DE3). Conditions: substrate of human QC expressed in Escherichia coli cell, mean ± SD (n = 2). The procedure:
For the spectrophotometric method, the 500 μl assay solutions consisted of 15 units glutamate dehydrogenase, 12 mM α-ketoglutarate, 0.6 mM NADH (a reduced form of NAD (nicotinamide adenine dinucleotide)) and varying concentrations of synthetic substrate in 50 mM Tris-HCl, pH 8.0. Reactions were started by the addition of QC (0.04 to 2.5 μg), and the activity was monitored by recording the decrease of NADH absorbance at 340 nm.
The Km and kcat values determined for the recombinant protein of the invention were very similar to the human QC expressed in Drosophila S2 cells, as evident in Table 1.
Target sequence in this assay (Q16769 33-361): as the sequence (Q16769 33-361) above

Data set [5] has as its target T1, Human QC. The data set can be described thus: QC activity analysis by reverse-phase HPLC on [Gln1]-TRH. The format is biochemical. More on the design: corresponding to the coding region of human QC (Ala33-Leu361) was re-amplified and inserted into a pET-43.1a expression vector; Nus fusion (pET-43.1a construct) or thioredoxin fusion (pET-32a construct) (N, cleaved yes); (His)6 (pET-43.1a construct: N- and C-terminal sites; pET-32a construct: 5'-end, upstream of the Factor Xa site); made in house; host or cells: E. coli BL21 (DE3). To be noted: 50 mM Tris-HCl. The procedure: QC activity was analyzed based on reverse-phase HPLC and spectrophotometric measurement. […] A reaction without addition of human QC was provided as a control in the assay. Subsequently, a 20 μl aliquot of the mixture was subjected to HPLC analysis on a Waters liquid chromatograph using a C18 column (Waters, Milford, Mass.). The bound materials were eluted by a three-step linear gradient of methanol containing 0.1% trifluoroacetic acid (TFA). The eluates were detected at 214 nm and identified by mass spectrometry and N-terminal sequencing.
The synthetic [Gln^1]-TRH (Gln-His-Pro), one of the putative physiological substrates of human QC, was used to analyze the QC activity of the recombinant protein based on the HPLC elution profile of the peptide.
Target sequence in this assay (Q16769 33-361): as above

Where two headings read alike, the source gives them in different places. Peptide text beside a SMILES is read from it.

Consider `CSc1nnn[nH]1` [5-(methylthio)-1H-tetrazole], for which the remaining activity at 140 µM on Human QC [1] was determined as 89.1%. On the same count and under the same terms, the same measure for `CCOC(=O)Cc1nnn[nH]1` [ethyl 1H-tetrazole-5-acetate]: 90.6%.

In the case of `c1ccc(N=c2[n-][n+](-c3ccccc3)cn2-c2ccccc2)cc1` [nitron], on Human QC [1], the “QC activity (% of control)” value is listed as 61.4 % of control. In the case of `CC(C)(C)OC(=O)[C@@H](N)CCC(N)=O` [Gln-t-butyl ester, H-Gln-t-butyl ester], the Km at Human QC [2] was 1200 ± 100 µM; at Human QC [3], 6700 ± 2000 µM; on Human QC [4] (50 mM Tris-HCl, pH 8.0), 4100 ± 600 µM. Besides, the catalytic constant (kcat) at Human QC [2] is 6.7 ± 0.2 s⁻¹; on Human QC [3] it was 16.0 s⁻¹; on Human QC [4], 20.9 ± 2.1 s⁻¹. With `Nc1nc[nH]n1` [3-amino-1,2,4-triazole], the remaining activity at 140 µM at Human QC [1] was 84.5%. [Gln^1]-TRH (Gln-His-Pro): the “Turnover in the absence of human QC” value at Human QC [5] (5 days, pH 8.0, at 25° C., no enzyme) is reported as “less than 20%”. Further, on Human QC [5] (within 20 minutes, 0.6 μM human QC, 14.8 mM substrate, pH 8.0, 25° C.), the “Conversion into [pGlu1]-TRH by human QC” value was “almost completely converted”. `c1ccc(Cn2ccnc2)cc1` [1-benzylimidazole]: the remaining activity at 140 µM at Human QC [1] was determined as 41.5%.

With `Nc1n[nH]c(N)n1` [3,5-diamino-1,2,4-triazole], the remaining activity at 140 µM at Human QC [1] was determined as 89.9%. For `NC(=O)CC[C@H](NC(=O)[C@@H](N)CCC(N)=O)C(=O)O` [Gln-Gln, H-Gln-Gln-OH] (H-Gln-Gln-OH), the results for the Km on Human QC [2] and at Human QC [3] were 100 µM and 700 ± 400 µM, respectively. Further, the kcat on Human QC [2] is 20.7 ± 0.2 s⁻¹; at Human QC [3], 10.0 s⁻¹. `O=c1[nH][nH]c(=O)n1-c1ccccc1` [4-phenyl-1,2,4-triazoleine-3,5-dione]: on Human QC [1], the remaining activity at 140 µM worked out at 78.2%.

By Km is commonly meant the substrate concentration at which the rate is half of its maximum. Broadly, the kcat is the maximal rate divided by the concentration of active sites.
